# Source: patent US10730866B2, “Indole derivatives and use thereof” (Purdue Pharma L.P., priority 2014, dated 2020)
# Legend:
# human Nav1.7 = human Nav1.7 (Homo sapiens (Human), UniProt Q15858); test: FLIPR or FLIPR TETRA sodium dye assay for sodium channel blocking activity; format: cell-based; conditions: recombinant HEK293 cells expressing human Nav1.7
# Method: In vitro assays were performed in a recombinant cell line expressing cDNA encoding the alpha subunit (Nav1.7, SCN9a, PN1, NE) of human Nav1.7 (Accession No. NM_002977). The cell line was provided by investigators at Yale University (Cummins et al, J. Neurosci. 18(23): 9607-9619 (1998)). For dominant selection of the Nav1.7-expressing clones, the expression plasmid co-expressed the neomycin resistance gene. The cell line was constructed in the human embryonic kidney cell line, HEK293, under the influence of the CMV […] promoter, and stable clones were selected using limiting dilution cloning and antibiotic selection using the neomycin analogue, G418. Recombinant beta and gamma subunits were not introduced into this cell line. Additional cell lines expressing recombinant Nav1.7 cloned from other species can also be used, alone or in combination with various beta subunits, gamma subunits or chaperones.
# Unless otherwise noted, cell culture reagents were purchased from Mediatech of Herndon, Va. The recombinant Nav1.7/HEK293 cells were routinely cultured in growth medium consisting of Dulbecco's […] essential medium containing 10% fetal bovine serum (FBS, Hyclone, Thermo Fisher Scientific, Logan, Utah), 100 U/mL penicillin, 100 μg/mL streptomycin, 2-4 mM L-glutamine, and […] G418. For natural, non-recombinant cell lines, the selective antibiotic was omitted, and additional media formulations can be applied as needed.
# The final buffer consisted of 20 mM Hepes, pH 7.3, 1.261 mM CaCl2, 0.493 mM MgCl2, 0.407 mM Mg(SO)4, 5.33 mM KCl, 0.441 mM KH2PO4, 137 mM NaCl, 0.336 mM Na2HPO4 and […] D-glucose (Hanks et al., Proc. Soc. Exp. Biol. Med. 71:196 (1949)), and the simple formulation was typically the basic buffer throughout the assay (i.e., all wash and addition steps).
# The fluorescence indicator used in the primary fluorescence assay was the cell permeant version of CoroNa™ Green (Invitrogen, Molecular Probes, Eugene, Oreg.), a dye that emits light in the fluorescence range (Harootunian et al., J. Biol. Chem. 264(32):19458-19467 (1989)). The intensity of this emission, but not the wavelength range, is increased when the dye is exposed to Na^+ ions, which it can bind with partial selectivity. Cells expressing Nav1.7 or other sodium channels were loaded with the CoroNa™ Green dye immediately in advance of the fluorescence assay, and then, after agonist stimulation, the mobilization of Na^+ ions was detected as the Na^+ ions flowed from the extracellular fluid into the cytoplasm through the activated sodium channel pores. The dye was stored in the dark as a lyophilized powder, and then an aliquot was dissolved immediately before the cell loading procedure, according to the instructions of the manufacturer, to a stock concentration of 10 mM in DMSO. It was then diluted in the assay buffer to a 4× concentrated working solution, so that the final concentration of dye in the cell loading buffer was 5 μM.
# In the fluorescence assays, two agonists were used in combination, namely 1) veratridine; and 2) the venom from the yellow scorpion, Leiurus quinquestriatus hebraeus. Veratridine is an alkaloid small molecule that facilitates the capture of channel openings by inhibiting inactivation, and the scorpion venom is a natural preparation that includes peptide toxins selective for different subsets of voltage-gated sodium channels. These scorpion toxins inhibit the fast inactivation of their cognate target channels. Stock solutions of the agonists were prepared to 40 mM in DMSO (veratridine) and 1 mg/mL in dH2O (scorpion venom), and then diluted to make a 4× or 2× stock (depending on the particular assay) in assay buffer, the final concentration being 100 μM (veratridine) and 10 μg/mL (scorpion venom). Both of the agonists were purchased from Sigma Aldrich, St. Louis, Mo.
# Test compounds were dissolved in DMSO to yield 10 mM stock solutions. […]
# hNav1.7 = hNav1.7 (Homo sapiens (Human), UniProt Q15858); test: Electrophysiology (EP) assay, whole-cell patch clamp; format: cell-based; conditions: hNav1.7 expressing HEK-293 cells; affinity for inactivated state; read-out: Nav1.7 Activity (μM) EP assay Ki
# Method: The hNav1.7 expressing HEK-293 cells are plated on 35 mm culture dishes pre-coated with poly-D-lysine in standard DMEM culture media (Mediatech, Inc., Herndon, Va.) and incubated in a 5% CO2 incubator at 37° C. Cultured cells are used approximately 12-48 hours after plating.
# The hNav1.7 expressing HEK-293 cells are plated on tissue culture flasks in standard DMEM culture media (Mediatech, Inc.) and incubated in a 5% CO2 incubator at 37° C. Cultured cells are used approximately 12-48 hours after plating.
# On the day of experimentation, the 35 mm dish is placed on the stage of an inverted microscope equipped with a perfusion system that continuously perfuses the culture dish with fresh recording media. A gravity driven superfusion system is used to apply test solutions directly to the cell under evaluation. This “shooter” system consists of an array of glass pipettes connected to a motorized horizontal translator. The outlet of the shooter is positioned approximately 100 μm from the cell of interest.
# Whole cell currents are recorded using the whole-cell patch clamp configuration using an Axopatch 200B amplifier (Axon Instruments, Foster City Calif.), 1322A A/D converter (Axon Instruments) and pClamp software (v. 8; Axon Instruments) and stored on a personal computer. Gigaseals are formed and the whole-cell configuration is established in voltage clamp mode, and membrane currents generated by hNav1.7 channels are recorded. Borosilicate glass pipettes with resistance values between 1.5 and 2.0 MΩ when filled with pipette solution are used and series resistance (<5 MΩ) is compensated by 75-80%. Signals are sampled at 50 kHz and low pass filtered at 3 kHz.
# Whole cell currents are recorded using the whole-cell patch clamp configuration using an Patchliner (Nanion Technologies, Munich Germany), EPC 10 quadro amplifiers (HEKA, Bellmore, N.Y.) and PatchControl HT 10905 (Nanion Technologies) and PatchMaster v2x73 software (HEKA) and stored on a personal computer. Gigaseals are formed and the whole-cell configuration is established in voltage clamp mode, and membrane currents generated by hNav1.7 are recorded. NPC-16 chips have resistance values between 1.0 and 2.0 MΩ when filled with pipette solution and series resistance (<5 MΩ). Signals are sampled at 25 kHz and low pass filtered at 3 kHz.
# After establishing the whole-cell configuration in voltage clamp mode, voltage protocols are run to establish the 1) test potential (Vmax), 2) holding potential (Vh), and 3) the conditioning potential for each cell.
# After establishing the whole-cell configuration in voltage clamp mode, a standard I-V protocol is run to determine the potential at which the maximal current (Imax) is elicited. This potential is the test potential (Vt). To determine a conditioning potential at which 100% of channels are in the inactivated state, a standard steady-state inactivation (SSIN) protocol is run using a series of fifteen 100 ms-long depolarizing prepulses, incrementing in 10 mV steps, immediately followed by a 5 ms testing pulse to Vmax. This protocol also permits determination of the holding potential at which all channels are in the resting state.
# For compounds causing significant retardation of recovery from inactivation, an estimate of the affinity for the inactivated state of the channel (Ki) is generated using the following protocol. From the negative, no residual inactivation, holding potential, the cell is depolarized to the conditioning voltage for 2-5 seconds, returned to the negative holding potential for 10-20 ms to relieve fast inactivation and then depolarized to the test potential for ˜15 ms. This voltage protocol is repeated every 10-15 seconds, first to establish a baseline in the absence of the test compound, then in the presence of the test compound.
# After a stable baseline is established, the test compound is applied and block of the current elicited by the test pulse assessed. […]
# Chain of hNav1.7 (Q15858 other isoform, or with tags, fused parts or gaps): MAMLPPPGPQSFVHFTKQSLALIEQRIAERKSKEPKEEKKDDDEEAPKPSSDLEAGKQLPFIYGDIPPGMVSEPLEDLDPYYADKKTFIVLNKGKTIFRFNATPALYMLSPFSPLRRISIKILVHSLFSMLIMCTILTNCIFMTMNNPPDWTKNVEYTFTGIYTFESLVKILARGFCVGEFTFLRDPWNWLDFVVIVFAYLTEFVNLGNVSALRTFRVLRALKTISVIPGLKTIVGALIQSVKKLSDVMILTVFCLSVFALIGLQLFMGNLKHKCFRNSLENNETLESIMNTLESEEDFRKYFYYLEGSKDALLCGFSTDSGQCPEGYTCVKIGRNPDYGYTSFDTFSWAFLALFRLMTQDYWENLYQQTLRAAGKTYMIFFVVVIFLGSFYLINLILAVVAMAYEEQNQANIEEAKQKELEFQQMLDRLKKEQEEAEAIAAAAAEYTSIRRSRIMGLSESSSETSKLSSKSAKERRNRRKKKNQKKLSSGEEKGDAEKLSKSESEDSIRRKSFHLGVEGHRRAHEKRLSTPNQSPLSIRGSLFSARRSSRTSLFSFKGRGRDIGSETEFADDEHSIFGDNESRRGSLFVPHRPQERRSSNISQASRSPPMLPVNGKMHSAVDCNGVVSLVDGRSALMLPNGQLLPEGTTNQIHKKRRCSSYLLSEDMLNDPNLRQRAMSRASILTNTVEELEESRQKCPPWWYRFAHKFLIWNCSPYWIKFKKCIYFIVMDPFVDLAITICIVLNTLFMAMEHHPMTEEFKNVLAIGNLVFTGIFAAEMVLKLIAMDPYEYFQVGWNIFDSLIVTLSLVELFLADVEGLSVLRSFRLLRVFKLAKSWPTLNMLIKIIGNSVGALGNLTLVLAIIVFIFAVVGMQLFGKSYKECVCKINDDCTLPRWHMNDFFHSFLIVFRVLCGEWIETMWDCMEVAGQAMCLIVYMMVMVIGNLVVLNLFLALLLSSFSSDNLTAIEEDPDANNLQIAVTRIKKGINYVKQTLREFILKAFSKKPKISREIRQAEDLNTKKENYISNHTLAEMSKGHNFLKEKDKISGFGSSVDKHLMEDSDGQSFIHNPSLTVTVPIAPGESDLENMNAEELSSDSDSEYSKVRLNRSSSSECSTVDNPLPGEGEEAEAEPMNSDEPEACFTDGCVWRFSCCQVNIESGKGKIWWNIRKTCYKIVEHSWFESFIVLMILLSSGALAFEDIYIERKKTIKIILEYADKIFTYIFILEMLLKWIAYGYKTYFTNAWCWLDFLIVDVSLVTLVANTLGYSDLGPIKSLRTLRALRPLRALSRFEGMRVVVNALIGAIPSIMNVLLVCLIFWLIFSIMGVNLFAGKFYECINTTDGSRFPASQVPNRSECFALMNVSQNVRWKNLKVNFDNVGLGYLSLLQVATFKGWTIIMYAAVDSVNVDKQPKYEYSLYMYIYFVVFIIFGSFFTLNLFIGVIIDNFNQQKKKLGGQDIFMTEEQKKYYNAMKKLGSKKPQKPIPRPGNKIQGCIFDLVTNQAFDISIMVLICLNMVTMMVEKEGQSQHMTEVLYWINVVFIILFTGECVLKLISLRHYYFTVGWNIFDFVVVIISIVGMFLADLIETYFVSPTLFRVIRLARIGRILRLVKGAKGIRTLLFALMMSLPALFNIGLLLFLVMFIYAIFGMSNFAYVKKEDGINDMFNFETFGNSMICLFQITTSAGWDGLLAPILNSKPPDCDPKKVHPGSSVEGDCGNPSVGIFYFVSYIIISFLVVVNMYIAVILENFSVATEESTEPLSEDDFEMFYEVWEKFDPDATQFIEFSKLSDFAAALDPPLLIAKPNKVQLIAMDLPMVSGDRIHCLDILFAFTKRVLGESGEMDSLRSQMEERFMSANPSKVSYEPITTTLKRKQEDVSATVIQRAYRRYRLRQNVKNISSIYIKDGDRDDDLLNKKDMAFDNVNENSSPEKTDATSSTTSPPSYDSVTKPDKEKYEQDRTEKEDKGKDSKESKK
# Chain of human Nav1.7 (Q15858 other isoform, or with tags, fused parts or gaps): as above
Structure (SMILES),IC50 (human Nav1.7) [µM],Ki (hNav1.7) [µM]
"CC(C)Cn1ccc2cc(-c3cccc(S(=O)(=O)Nc4ncns4)n3)ccc21 [Compound 41, 6-(1-isobutyl-1H-indol-5-yl)-N-(1,2,4-thiadiazol-5-yl)pyridine-2-sulfonamide]",0.514 ± 0.054,0.322 ± 0.113
"NC(=O)c1cc(N[C@H]2CCNC2=O)nc(-c2ccc3ncn(-c4ccc(C(F)(F)F)cc4)c3c2)n1 [Compound 44, (S)-6-((2-oxopyrrolidin-3-yl)amino)-2-(1-(4-(trifluoromethyl)phenyl)-1H-benzo[d]imidazol-6-yl)pyrimidine-4-carboxamide]",1.72 ± 0.156,1.54 ± 0.446
"O=C(Nc1ccc(C(F)(F)F)cc1)c1cc(N[C@H]2CCNC2=O)nc(-c2ccc3[nH]ccc3c2)n1 [Compound 78, (S)-2-(1H-indol-5-yl)-6-((2-oxopyrrolidin-3-yl)amino)-N-(4-(trifluoromethyl)phenyl)pyrimidine-4-carboxamide]",1.83 ± 0.459,1.28 ± 0.48
"NC(=O)c1cccc(-c2ccc3c(cnn3Cc3ccc(C(F)(F)F)cc3)c2)n1 [Compound 105, 6-(1-(4-(trifluoromethyl)benzyl)-1H-indazol-5-yl)picolinamide]",0.897 ± 0.114,0.7 ± 0.049
"OC[C@@H](O)c1cccc(-c2cnc3c(ccn3Cc3ccc(C(F)(F)F)cc3)c2)n1 [Compound 106, (S)-1-(6-(1-(4-(trifluoromethyl)benzyl)-1H-pyrrolo[2,3-b]pyridin-5-yl)pyridin-2-yl)ethane-1,2-diol]",1.33 ± 0.164,0.286 ± 0.027
"OC[C@@H](O)c1cccc(-c2ccc3c(cnn3Cc3ccc(C(F)(F)F)cc3)c2)n1 [Compound 107, (S)-1-(6-(1-(4-(trifluoromethyl)benzyl)-1H-indazol-5-yl)pyridin-2-yl)ethane-1,2-diol]",1.09 ± 0.077,0.534 ± 0.032
"NC(=O)c1cc([C@@H](O)CO)cc(-c2ccc3c(ccn3Cc3ccc(C(F)(F)F)cc3)c2)n1 [Compound 120, (R)-4-(1,2-dihydroxyethyl)-6-(1-(4-(trifluoromethyl)benzyl)-1H-indol-5-yl)picolinamide]",1.91 ± 0.458,2.03 ± 0.608
"NC(=O)c1cc(-c2ccc3c(ccn3Cc3ccc(C(F)(F)F)cc3)c2)cc([C@H](O)CO)n1 [Compound 123, (S)-6-(1,2-dihydroxyethyl)-4-(1-(4-(trifluoromethyl)benzyl)-1H-indol-5-yl)picolinamide]",1.52 ± 0.152,1.02 ± 0.368
"CC(C)Cn1ccc2cc(-c3cccc([C@H](O)[C@@H](O)C(N)=O)n3)ccc21 [Compound 150, (2R,3S)-2,3-dihydroxy-3-(6-(1-isobutyl-1H-indol-5-yl)pyridin-2-yl)propanamide]",1.38 ± 0.146,0.678 ± 0.172
"NC(=O)[C@H](O)[C@@H](O)c1cccc(-c2ccc3c(ccn3CC3CC3)c2)n1 [Compound 154, (2R,3S)-3-(6-(1-(cyclopropylmethyl)-1H-indol-5-yl)pyridin-2-yl)-2,3-dihydroxypropanamide]",10 to 20,27.2 ± 8.2
"CC(C)Cn1ncc2cc(-c3cccc([C@H](O)[C@@H](O)C(N)=O)n3)ccc21 [Compound 155, (2R,3S)-2,3-dihydroxy-3-(6-(1-isobutyl-1H-indazol-5-yl)pyridin-2-yl)propanamide]",> 20,10.6 ± 3.9
